Assay results: PubChem BioAssay AID328 (DTP/NCI, 2004)
Values joined by “and” are separate entries in the source; they are usually repeats but may differ in a detail not shown here. Identical values can stand only once. Inconclusive results and toxic doses are left out.

System: BDF1 mice, P388 leukemia ip, median survival T/C
Experiment: NCI In Vivo Anticancer Drug Screen. Data for tumor model P388 Leukemia (intraperitoneal) in B6D2F1 (BDF1) mice
Settings: endpoint: median survival time, higher = longer survival
How it was run: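 Survival ratio, drug arm over vehicle arm, in mice with a transplanted tumour.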

[1] = dose: 100.0 mg/kg/injection, schedule: Q04DX003 (ip), vehicle: saline with Tween-80
[2] = dose: 200.0 mg/kg/injection, schedule: Q04DX003 (ip), vehicle: saline with Tween-80
[3] = dose: 50.0 mg/kg/injection, schedule: Q01DX009 (ip), vehicle: saline with Tween-80
[4] = dose: 100.0 mg/kg/injection, schedule: Q01DX009 (ip), vehicle: saline with Tween-80
[5] = dose: 200.0 mg/kg/injection, schedule: Q01DX009 (ip), vehicle: saline with Tween-80
[6] = dose: 100.0 mg/kg/injection, schedule: Q01DX009 (ip), vehicle: Klucel (hydroxypropylcellulose) (HPC)
[7] = dose: 25.0 mg/kg/injection, schedule: Q01DX009 (ip), vehicle: saline with Tween-80

For `CN=C(NC(C)C)c1ccc(NC(=O)c2ccc(C(=O)Nc3ccc(C(=NC)NC(C)C)cc3)cc2)cc1`, the T/C (dose: 16.0 mg/kg/injection, schedule: Q04DX003 (ip), vehicle: saline with Tween-80) was 118 % of control, the T/C (dose: 42.2 mg/kg/injection, schedule: Q04DX003 (ip), vehicle: saline with Tween-80) was 150 % of control and the T/C (dose: 64.0 mg/kg/injection, schedule: Q04DX003 (ip), vehicle: saline with Tween-80) was 150 % of control. The T/C (dose: 96.0 mg/kg/injection, schedule: Q04DX003 (ip), vehicle: saline with Tween-80) was 150 % of control.

In the case of `O=C(Nc1ccc(C(=O)Nc2ccc(C3=NCCCN3)cc2)cc1)Nc1ccc(C2=NCCCN2)cc1`, the T/C (dose: 16.5 mg/kg/injection, schedule: Q04DX003 (ip), vehicle: saline with Tween-80) is reported as 122 % of control and 204 % of control, the T/C (dose: 25.0 mg/kg/injection, schedule: Q04DX003 (ip), vehicle: saline with Tween-80) is reported as 245 % of control and 163 % of control and the T/C (dose: 37.5 mg/kg/injection, schedule: Q04DX003 (ip), vehicle: saline with Tween-80) is reported as 159 % of control and 186 % of control.

In the case of `Cc1ccc(S(=O)(=O)N(CCC(=N)N)C(C)C)cc1`, the T/C (dose: 12.5 mg/kg/injection, schedule: Q01DX009 (ip), vehicle: saline) is reported as 95 % of control, the T/C (dose: 25.0 mg/kg/injection, schedule: Q01DX009 (ip), vehicle: saline) is reported as 90 % of control and the T/C (dose: 25.0 mg/kg/injection, schedule: Q04DX003 (ip), vehicle: saline) is reported as 104 % of control. The T/C (dose: 50.0 mg/kg/injection, schedule: Q01DX009 (ip), vehicle: saline) was 105 % of control and the T/C (dose: 50.0 mg/kg/injection, schedule: Q04DX003 (ip), vehicle: saline) was 100 % of control.

`C/C(=C1/c2ccccc2-c2n[nH]c(C)c21)S(=O)(=O)O` was tested, and the T/C [1] was 104 % of control, the T/C [2] was 100 % of control and the T/C (dose: 400.0 mg/kg/injection, schedule: Q04DX003 (ip), vehicle: saline with Tween-80) was 100 % of control.

With `Cc1cc(=O)c(O)c(N(C)C)o1` the T/C [3] was 95 % of control, the T/C [4] was 106 % of control and the T/C [5] was 102 % of control.

For `CCCCNP(=O)(N1CC1)N1CC1`, the T/C (dose: 8.0 mg/kg/injection, schedule: Q04DX003 (ip), vehicle: saline with Tween-80) was 116 % of control, the T/C (dose: 8.25 mg/kg/injection, schedule: Q04DX003 (ip), vehicle: saline with Tween-80) was 154 % of control and the T/C (dose: 12.0 mg/kg/injection, schedule: Q04DX003 (ip), vehicle: saline with Tween-80) was 100 % of control. For the same compound, the T/C (dose: 12.5 mg/kg/injection, schedule: Q04DX003 (ip), vehicle: saline with Tween-80) was 190 % of control and the T/C (dose: 18.75 mg/kg/injection, schedule: Q04DX003 (ip), vehicle: saline with Tween-80) was 218 % of control.

`S=C1SC2(CCCCCC2)NC2=C1CCCCC2` was tested, and the T/C [6] was 106 % of control, the T/C (dose: 200.0 mg/kg/injection, schedule: Q01DX009 (ip), vehicle: Klucel (hydroxypropylcellulose) (HPC)) was 103 % of control and the T/C (dose: 400.0 mg/kg/injection, schedule: Q01DX009 (ip), vehicle: Klucel (hydroxypropylcellulose) (HPC)) was 105 % of control.

With `Cc1ccc(SC2CC3CC2C2COCC32)cc1` (configuration not stated) the T/C (dose: 25.0 mg/kg/injection, schedule: Q01DX009 (ip), vehicle: Klucel (hydroxypropylcellulose) (HPC)) was 86 % of control, the T/C (dose: 50.0 mg/kg/injection, schedule: Q01DX009 (ip), vehicle: Klucel (hydroxypropylcellulose) (HPC)) was 95 % of control and the T/C [6] was 104 % of control.

For `CCOC(=O)c1sc2nc(C)cc(C)c2c1N`, the T/C (dose: 100.0 mg/kg/injection, schedule: Q01DX005 (ip), vehicle: saline with Tween-80) was 100 % of control and the T/C (dose: 200.0 mg/kg/injection, schedule: Q01DX005 (ip), vehicle: saline with Tween-80) was 110 % of control.

For `CN(C)CSCN(C)C`, the T/C [7] was 100 % of control, the T/C [3] was 111 % of control and the T/C [4] was 102 % of control.

In the case of `Nc1cc(C(=O)Nc2ccc(C3=NCCN3)cc2)ccc1C(=O)Nc1ccc(C2=NCCN2)cc1`, the T/C (dose: 1.4 mg/kg/injection, schedule: Q01DX009 (ip), vehicle: saline with Tween-80) is reported as 158 % of control, the T/C (dose: 2.2 mg/kg/injection, schedule: Q01DX009 (ip), vehicle: saline with Tween-80) is reported as 154 % of control and the T/C (dose: 3.3 mg/kg/injection, schedule: Q01DX009 (ip), vehicle: saline with Tween-80) is reported as 154 % of control and 200 % of control. The T/C (dose: 5.0 mg/kg/injection, schedule: Q01DX009 (ip), vehicle: saline with Tween-80) was 191 % of control, the T/C (dose: 8.0 mg/kg/injection, schedule: Q01DX009 (ip), vehicle: saline with Tween-80) was 230 % of control and the T/C (dose: 12.0 mg/kg/injection, schedule: Q01DX009 (ip), vehicle: saline with Tween-80) was 230 % of control. For the same compound, the T/C (dose: 12.5 mg/kg/injection, schedule: Q01DX009 (ip), vehicle: saline with Tween-80) was 230 % of control, the T/C (dose: 13.0 mg/kg/injection, schedule: Q04DX003 (ip), vehicle: saline with Tween-80) was 170 % of control and the T/C (dose: 20.0 mg/kg/injection, schedule: Q04DX003 (ip), vehicle: saline with Tween-80) was 208 % of control. The T/C [7] was 230 % of control, the T/C (dose: 30.0 mg/kg/injection, schedule: Q04DX003 (ip), vehicle: saline with Tween-80) was 250 % of control and 181 % of control and the T/C (dose: 44.0 mg/kg/injection, schedule: Q04DX003 (ip), vehicle: saline with Tween-80) was 272 % of control. The T/C [3] was 92 % of control, the T/C (dose: 66.0 mg/kg/injection, schedule: Q04DX003 (ip), vehicle: saline with Tween-80) was 229 % of control and 272 % of control and the T/C [1] was 166 % of control and 204 % of control. For the same compound, the T/C (dose: 150.0 mg/kg/injection, schedule: Q04DX003 (ip), vehicle: saline with Tween-80) was 100 % of control and the T/C [2] was 100 % of control.

In the case of `CC(=O)c1ccccc1C`, the T/C [3] is reported as 100 % of control, the T/C (dose: 50.0 mg/kg/injection, schedule: Q04DX003 (ip), vehicle: saline with Tween-80) is reported as 100 % of control and the T/C [4] is reported as 109 % of control. The T/C [1] was 100 % of control, the T/C [5] was 95 % of control and the T/C [2] was 100 % of control.
